# Assay results: patent US12678440B2, “Compositions and methods for treating misfolded protein ocular disorders” (CASE WESTERN RESERVE UNIVERSITY, priority 2020, dated 2026)
# Experiments:
# [1] = tested on: adRP-causing rhodopsin mutants (T4R, P23H, P53R, C110Y, D190N, P267L); assay: High-content imaging of rhodopsin mutants stably expressed in U2OS cells; assay type: cell-based, mouse; details: for immunofluorescence intensities of rhodopsin mutants: six adRP mutants
# Procedure: Seven U2OS stable cell lines were generated which separately express the WT and six mutant mouse rhodopsin (T4R, P23H, P53R, C110Y, D190N, P267L) fused with Venus fluorescence protein. Briefly, the U2OS cells (ATCC, Manassas, VA, USA) were transfected with the pcDNA3.1 Zeo containing the cDNA of mouse WT or T4R, P23H, P53R, C110Y, D190N, P267L rhodopsin fused with Venus and transfected cells were incubated in DMEM with 10% FBS for 48 h before addition of 400 μg/mL of Zeocin for positive clone selection. Colonies of cells survived from 1 week of Zeocin selection were collected, and expression of WT and six mutant rhodopsins were confirmed by fluorescence of Venus and immunoblotting of rhodopsin.
# (§1) To assess the effect of active compounds on the clearance of P23H rhodopsin in mammalian cells, an image-based assay was performed using NIH3T3 (RHO^WT/GFP) and NIH3T3 (RHO^P23H/GFP) cells, as described previously. Briefly, cells were seeded at 5000 cells per well in 384-well plates and incubated at 37° C. in 5% CO2 for 4 hours until cells were attached to the bottom of the plate. Attached cells were treated with compounds for 24 hours. The assay medium was aspirated, and cells were fixed with 4% paraformaldehyde at 20 μL per well for 20 min at room temperature. Cell membranes were permeabilized with PBS containing 0.1% Triton X-100 (PBST) and then incubated with 50 µg/mL 1D4 anti-rhodopsin antibody at 15 μL/well for 1 hour at room temperature. After three washes with 50 μl/well of PBST, cells were incubated with 15 μL/well Cy3-conjugated goat anti-mouse IgG antibody for 1 hour at room temperature. After three washes with 50 μl/well of PBST, cells were incubated in 50 μl/well of PBS containing 2 μg/mL Hoechst 33342 to stain the nuclei. Finally, the immunostained cells were imaged by an ImageExpress High Content Imaging System (MolecularDevices). Immunofluorescence of rhodopsin was measured by MetaXpress software using the mean of total fluorescence of Cy3 channel per cell per well taken from five fields containing 600-1000 intact cells per well. After normalizing the fluorescence intensities of rhodopsin to the DMSO treated cells as 0% and cells immunostained with secondary antibody only as −100%, dose-response curves for each compound were plotted and fitted by a modified Hill function using the Origin software. The high-content imaging experiments for hit validation were performed at the CWRU drug discovery facility, and the high-content imaging analyses for the MTX co-treatment with BafA1 and MG-132 were undertaken at the University of Pittsburgh Drug Discovery Institute.
# P23H rhodopsin = assay: Image-based (high-content imaging) assay in NIH3T3 (RHO^P23H/GFP) cells; assay type: cell-based; details: for EC50 / Efficacy, Image-based assay NIH3T3 (RHO^P23H/GFP): 24 h; for EC50: 8-10 doses, rhodopsin immunostaining; for Efficacy, Image-based assay NIH3T3 (RHO^P23H/GFP): DMSO 0%, secondary antibody only −100%
# Description: Two NIH3T3 stable cell lines, NIH3T3 (RHO^WT/GFP) and NIH3T3 (RHO^P23H/GFP) were shared by Dr. Krzysztof Palczewski's lab who generated them by incorporating the […] DNA constructs to the NIH3T3 cells, respectively, via viral transduction (24, 33). GFP was co-expressed with rhodopsin for positive-clone selection. The expression of the WT and P23H rhodopsin protein was confirmed by immunoblots and immunostaining.
# as §1
# [2] = tested on: chymotrypsin-like proteasome activity; assay: Proteasome activity assay (Proteasome-Glo); assay type: cell-based; details: NIH3T3 (RHO^P23H/GFP) and NIH3T3 (RHO^WT/GFP) cells; 0.0195 to 10 μM, 24 h
# Procedure: NIH3T3 (RHO^P23H/GFP), NIH3T3 (RHO^WT/GFP) and NIH3T3 cells were seeded in a white-wall clear-bottom 384-well plate at 2500 cells/well in 20 μL of complete mediu. After 3 h of incubation, five μL/well of complete medium containing MTX was added to cells to treat cells with MTX at final concentrations from 0.0195 to 10 μM for 24 h. The cells treated with a complete medium containing 0.1% DMSO were used as the 100% control, and those treated with 5 μM MG-132 for 8 h were used as the 0% control. For endpoint proteasome activity measurement, each well was added with 25 μL of Proteasome-Glo™ Reagent containing the Suc-LLVY-Glo™ substrate (Promega, G8660, Madison, WI USA). The 384-well plate was shaken for 2 min to mix the solutions followed by a 24-min incubation at room temperature. Luminescence of each well was detected by a SpectraMax 13× microplate reader (Molecular Devices). The chymotrypsin-like proteasome activity was normalized by the 100% and 0% controls, respectively.
# [3] = cited from earlier work
SMILES,EC50 (P23H rhodopsin) [nM],immunofluorescence intensities of rhodopsin mutants [1],"Efficacy, Image-based assay NIH3T3 (RHO^P23H/GFP) (P23H rhodopsin) [%]",also measured
CC(=O)OC(CC(=O)[O-])C[N+](C)(C)C (centres unmarked) [CL-001],2100,reduced,−83.6,–
O=C(NC1CCNCC1)c1n[nH]cc1NC(=O)c1c(Cl)cccc1Cl [CL-006],2200,–,−76.4,–
CCn1cnc2c(N)ncnc21 [CL-007],2900,reduced,−72.7,–
"CN(Cc1cnc2nc(N)nc(N)c2n1)c1ccc(C(=O)N[C@@H](CCC(=O)O)C(=O)O)cc1 [CL-009, N-[4-[[(2,4-diamino-6-pteridinyl)methyl]methylamino]benzoyl]-L-glutamic acid]",3300,–,−36.0,"rhodopsin immunofluorescence in cells expressing the P23H, C110Y, D190N and P267L mutants ([1]; seven doses): dose-dependent reductions; chymotrypsin-like proteasome activity [2]: did not affect; EC50 (P23H rhodopsin; listed as MTX): ~3300 nM; mean intensity of P23H rhodopsin immunostaining per cell (P23H rhodopsin; MTX alone, dose series): reduced in an MTX dose-dependent manner; MTX dose-dependent reduction of P23H rhodopsin immunostaining, co-treatment with BafA1 (P23H rhodopsin; co-treatment 100 nM BafA1): entirely abolished; MTX dose-dependent reduction of P23H rhodopsin immunostaining, addition of MG-132 (P23H rhodopsin; co-treatment 5 μM MG-132): not affected; water solubility [3]: water-soluble"

# These reach a lower EC50 (P23H rhodopsin). Values come first.
EC50 (P23H rhodopsin) [nM],SMILES,immunofluorescence intensities of rhodopsin mutants [1],"Efficacy, Image-based assay NIH3T3 (RHO^P23H/GFP) (P23H rhodopsin) [%]",also measured
1600,CC(=O)OC(CC(=O)O)C[N+](C)(C)C (centres unmarked) [CL-002],reduced,−61.0,–
1600,CCC(C)(O)C(O)C(=O)O (centres unmarked) [CL-008],–,−70.1,–
1300,NCC(=O)COP(=O)(O)O [CL-005],reduced,−72.7,–
600,O=C(O)C1=CC=CC(O)C1O (centres unmarked) [CL-003],–,−46.1,–
470,CC(O)CN (centres unmarked) [CL-004],–,−70.7,–
